In patent publication EP3717657B1, “A SYSTEM FOR ASSESSING MICROBIAL SUSCEPTIBILITY TO ANTIBIOTIC AGENTS” (Ascilion AB, priority 2017, dated 2019):
Converted amounts (≈) assume the structure as drawn.

How the values were obtained:
[1] = system: Escherichia coli (ATCC 25922); test: Antibiotic susceptibility by glucose consumption in culture medium, blood culture bottle inoculum (Example 1); type: cell-based; conditions: for Glucose concentration t=0: 0 minutes; for Glucose concentration t=60: 60 minutes; for Glucose concentration t=120: 120 minutes; for Glucose concentration t=180: 180 minutes; for dC/dT: rate of change in glucose concentration; for Glucose concentration t=240: 240 minutes;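 for dC/dT: rate calculated between the 60 and 180 min readings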
Description: (§1) Strains of Escherichia coli (ATCC 25922), Enterococcus faecalis (ATCC 29212) and Staphylococcus aureus (ATCC 29213) were inoculated in blood culture bottles (SVA, Uppsala, Sweden) and cultivated according to the manufacturer's instructions until positive.
(§2) Medium from each blood culture bottle was diluted 1:100 with cation adjusted Mueller-Hinton broth (SVA, Uppsala, Sweden) supplemented with glucose to a concentration of 1.0 mg/mL.
(§3) Table 1: Concentrations of antibiotic agents are given in µg/mL.
(§4) Glucose concentrations were measured at 0, 60, 120, 180, and 240 minutes using a WaveSense Jazz glucometer (AgaMatrix, Inc., Salem, NH, USA) with accompanying test strips.
(§5) Susceptibility scores corresponding to MIC values were calculated as described above. A 80% threshold was applied, i.e. the lowest concentration of antibiotic that entailed a rate of change in glucose concentration that was equal to or less than 80% of the reference was selected as the Minimal Inhibitory Concentration. The rate of change was calculated between the measurements at 60 and 180 minutes.

[2] = system: Enterococcus faecalis (ATCC 29212); test: as above; type: cell-based; conditions: for Glucose concentration t=0: 0 minutes; for Glucose concentration t=60: 60 minutes; for Glucose concentration t=120: 120 minutes; for Glucose concentration t=180: 180 minutes; for Glucose concentration t=240: 240 minutes; for dC/dT: rate of change in glucose concentration;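 for dC/dT: rate calculated between the 60 and 180 min readings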
Description: as §1, §2, §3, §4, §5

## CO[C@@]1(NC(=O)Cc2cccs2)C(=O)N2C(C(=O)O)=C(COC(N)=O)CS[C@@H]21 [Cefoxitin]
[1]; Escherichia coli, ATCC25922, E.coli, 80% threshold of rate of change vs reference, between 60 and 180 minutes, obtained in 4 hours, read-out: MIC Measured
  MIC: 4 µg/mL (≈ 9.36 µM)
[1]; [Ab] 0,5 µg/mL
  F=the rate of change in glucose concentration in relation to the reference: 139%
  Glucose concentration t=0: 139
  Glucose concentration t=60: 154
  Glucose concentration t=120: 140
  Glucose concentration t=180: 54
  dC/dT: 86
[1]; [Ab] 0,25 µg/mL
  F=the rate of change in glucose concentration in relation to the reference: 165%
  Glucose concentration t=0: 145
  Glucose concentration t=60: 157
  Glucose concentration t=120: 143
  Glucose concentration t=180: 41
  dC/dT: 102
[1]; [Ab] 1 µg/mL
  F=the rate of change in glucose concentration in relation to the reference: 129%
  Glucose concentration t=0: 144
  Glucose concentration t=60: 150
  Glucose concentration t=120: 143
  Glucose concentration t=180: 63
  dC/dT: 80
[1]; [Ab] 2 µg/mL
  F=the rate of change in glucose concentration in relation to the reference: 102%
  Glucose concentration t=0: 143
  Glucose concentration t=60: 163
  Glucose concentration t=120: 138
  Glucose concentration t=180: 75
  dC/dT: 63
[1]; [Ab] 4 µg/mL
  F=the rate of change in glucose concentration in relation to the reference: 19%
  Glucose concentration t=0: 146
  Glucose concentration t=60: 149
  Glucose concentration t=120: 140
  Glucose concentration t=180: 125
  Glucose concentration t=240: 116
  dC/dT: 12
[1]; [Ab] 8 µg/mL
  F=the rate of change in glucose concentration in relation to the reference: 18%
  Glucose concentration t=0: 145
  Glucose concentration t=60: 164
  Glucose concentration t=120: 149
  Glucose concentration t=180: 132
  Glucose concentration t=240: 127
  dC/dT: 11
[1]; [Ab] 16 µg/mL
  F=the rate of change in glucose concentration in relation to the reference: 6%
  Glucose concentration t=0: 142
  Glucose concentration t=60: 152
  Glucose concentration t=120: 152
  Glucose concentration t=180: 141
  Glucose concentration t=240: 145
  dC/dT: 4
[1]; [Ab] 32 µg/mL
  F=the rate of change in glucose concentration in relation to the reference: 5%
  Glucose concentration t=0: 146
  Glucose concentration t=60: 150
  Glucose concentration t=120: 143
  Glucose concentration t=180: 142
  Glucose concentration t=240: 137
  dC/dT: 3
[2]; Enterococcus faecalis, ATCC29212, E.faecalis, initial value, disregarded because rate of decrease was higher at 32 µg/mL, read-out: MIC value initially obtained
  MIC: 4 µg/mL (≈ 9.36 µM)
[2]; [Ab] 0,5 µg/mL
  F=the rate of change in glucose concentration in relation to the reference: 88%
  Glucose concentration t=0: 145
  Glucose concentration t=60: 150
  Glucose concentration t=120: 144
  Glucose concentration t=180: 87
  Glucose concentration t=240: 32
  dC/dT: 32
[2]; [Ab] 0,25 µg/mL
  F=the rate of change in glucose concentration in relation to the reference: 93%
  Glucose concentration t=0: 151
  Glucose concentration t=60: 155
  Glucose concentration t=120: 138
  Glucose concentration t=180: 88
  Glucose concentration t=240: 34
  dC/dT: 34
[2]; [Ab] 1 µg/mL
  F=the rate of change in glucose concentration in relation to the reference: 85%
  Glucose concentration t=0: 148
  Glucose concentration t=60: 159
  Glucose concentration t=120: 142
  Glucose concentration t=180: 98
  Glucose concentration t=240: 31
  dC/dT: 31
[2]; [Ab] 2 µg/mL
  F=the rate of change in glucose concentration in relation to the reference: 99%
  Glucose concentration t=0: 149
  Glucose concentration t=60: 169
  Glucose concentration t=120: 145
  Glucose concentration t=180: 98
  Glucose concentration t=240: 36
  dC/dT: 36
[2]; [Ab] 4 µg/mL
  F=the rate of change in glucose concentration in relation to the reference: 74%
  Glucose concentration t=0: 150
  Glucose concentration t=60: 159
  Glucose concentration t=120: 146
  Glucose concentration t=180: 106
  Glucose concentration t=240: 27
  dC/dT: 27
[2]; [Ab] 8 µg/mL
  F=the rate of change in glucose concentration in relation to the reference: 63%
  Glucose concentration t=0: 144
  Glucose concentration t=60: 149
  Glucose concentration t=120: 147
  Glucose concentration t=180: 104
  Glucose concentration t=240: 23
  dC/dT: 23
[2]; [Ab] 16 µg/mL
  F=the rate of change in glucose concentration in relation to the reference: 68%
  Glucose concentration t=0: 148
  Glucose concentration t=60: 154
  Glucose concentration t=120: 148
  Glucose concentration t=180: 105
  Glucose concentration t=240: 25
  dC/dT: 25
[2]; [Ab] 32 µg/mL
  F=the rate of change in glucose concentration in relation to the reference: 74%
  Glucose concentration t=0: 148
  Glucose concentration t=60: 155
  Glucose concentration t=120: 140
  Glucose concentration t=180: 102
  Glucose concentration t=240: 27
  dC/dT: 27
